According to patent publication US20120264810A1, “COMPOSITIONS AND METHODS FOR ENHANCING CELLULAR UPTAKE AND INTRACELLULAR DELIVERY OF LIPID PARTICLES” (The University of British Columbia, priority 2009, published 2012):
Counter-ions that a name gives are not always drawn.

Experiments:
[1] = system: Raw264.7 cells; assay: Drug screen and titration: siRNACy3-LN uptake and punctate distribution (Cellomics ArrayScan); format: cell-based, mouse; conditions: for Normalized Punctate Distribution / Normalized siRNA Uptake: 10 μg/mL siRNACy3 in DLinDMA LN, ~10 μM drug, 24 h; for Normalized Punctate Distribution: normalized to absence of drug; for Normalized siRNA Uptake: total Cy3 intensity normalized to absence of drug; for punctate / cytosolic distribution of siRNACy3 in titration study: drug 0-30 μM, 10 μg/mL siRNACy3-LN; for increase in siRNACy3 accumulation: drug at 30 μM, 10 μg/mL siRNACy3 in DLinDMA LNs, normalized to no drug
Method: (§1) Cells were fixed with 3% paraformaldehyde in PBS in the presence of Hoescht for 15 minutes. Cells were rinsed and stored in PBS supplemented with calcium chloride and magnesium sulfate. Plates were scanned and analyzed with the Cellomics ArrayScan VTI.
as §1

[2] = system: GAPDH protein expression in Raw264.7 cells; assay: GAPDH siRNA-LN knockdown by western blotting in Raw264.7 cells; format: cell-based, mouse
Method: (§2) FIG. 5: Raw264.7 cells were treated for 24 hours with siRNACy3 encapsulated in DLinDMA LNs in the presence or absence of 5% CQ-lipid. A lipid label, SPDiO, was incorporated into the LN to monitor uptake. LN uptake was assessed by (A) SPDiO fluorescence and distribution of siRNA was assessed by (B) Cy3 fluorescence using the Cellomics ArrayScan VTI. (C) Raw264.7 cells were incubated with the same LN formulations as in (B) for 24 hours at 10 μg/mL siRNACy3. siRNACy3 distribution was examined by confocal microscopy. (D) GAPDH siRNA was formulated into LN particles comprising of 40% DLinDMA with 0% CQ-lipid or 40% DLinDMA with 5% CQ-lipid. Raw264.7 cells were treated with 5, 10 and 20 μg/mL of siRNA for 48 and 72 hours. GAPDH protein expression was assessed by western blotting against anti-GAPDH and anti-actin. (E) LNCaP cells were treated accordingly as in (D).
(§3) Perhaps most importantly, we wanted to determine whether the enhanced cytosolic distribution of siRNACy3 observed with the CQ-lipid correlated to enhanced gene knockdown. Glyceraldehyde 3-phosphate dehydrogenase (GAPDH) is an ubiquitously expressed cytosolic protein and therefore knockdown efficiency of encapsulated siRNA can be tested in different cell lines (Barber et al., 2005). Raw264.7 cells were treated with LN of varying concentration of GAPDH siRNA for 24, 48 and 72 hours. Total protein was isolated and analyzed for GAPDH levels by immunoblotting. […] The function of GAPDH siRNA was specific since actin expression was unaltered (FIG. 5D). To confirm the function of the CQ-lipid in the LN-siRNA-mediated gene knockdown, GAPDH silencing was also assessed in LNCaP cells (FIG. 5E).

[3] = system: GAPDH protein expression in LNCaP cells; assay: GAPDH siRNA-LN knockdown in LNCaP cells; format: cell-based, human
Method: as §2, §3

[4] = system: Raw264.7 cells; assay: Chloroquine / CQ-lipid LN formulations: LN uptake (SPDiO) and siRNA distribution (Cellomics, confocal); format: cell-based, mouse
Method: All lipid stocks (DSPC, PEG-s-DMG, Cholesterol, SP-DiOC18, chloroquine lipid and DLinDMA) were dissolved and maintained in 100% ethanol. Lipids were mixed together at a molar % ratio of 40:10:39.8:10:0.2 DLinDMA:PEG-s-DMG:cholesterol:DSPC:SP-DiO18 or 40:10:35.8:9:0.2 with 5% CQ-lipid or 35:10:39.8:0.2 with 5% CQ-lipid. Lipid mixture was added drop-wise to the formulation buffer (50 mM citrate, pH 4.0) to form multi lamellar vesicles (MLV). Large unilamellar vesicles (LUVs) were formed upon extrusion of MLVs through two stacked 80 nm Nuclepore polycarbonate filters using an extruder from Northern Lipids (Vancouver, BC, Canada) at ˜300 psi. In order to encapsulate siRNA, siRNA was added drop-wise to preformed vesicles and incubated at 35° C. for 30 minutes with constant mixing. Removal of ethanol and neutralization of formulation buffer were performed by dialysis in PBS for 16 hours. Distribution of size was determined by dynamic light scattering using a NICOMP 370 particle sizer (Nicomp Particle sizing Inc., Santa Barbara, Calif.). siRNA encapsulation efficiency was determined by removal of free siRNA using VivaPureD MiniH columns (Sartorius Stedim Biotech) from samples collected before and after dialysis. The encapsuted siRNA from eluants were then extracted and quantified at 260 nm. siRNA to lipid ratio was determined by measurement of cholesterol content in vesicles by using the Cholesterol E enzymatic assay from Wako Chemicals USA (Richmond, Va.).
Raw264.7 cells grown on glass coverslips were treated with 10 μg/mL Cy5-siRNA-LN/SPDiO or siRNACy3-LN/SPDiO constituted of +/−5% CQ-lipid in the presence of 35 or 40% DLinDMA. The overall uptake of LNs was monitored with SPDiO and the distribution of siRNA was monitored using either Cy5- or Cy3-labelled siRNA. Cells were fixed with 3% paraformaldehyde in PBS in the presence of Hoescht for nuclear staining for 15 minutes. Glass coverslips were mounted onto slides and analyzed by confocal microscopy (Olympus FV1000). Fluorochromes were excited at 488 nm (DiO), 594 nm (Alexa-594), 550 nm (Cy3) and at 633 nm (Cy5) and images were collected sequentially with 60× oil immersion objective lens.
Raw264.7 cells were treated with LNs consisting of 40% DLinDMA in the absence or presence of 10 or 30 μM chloroquine or formulation consisting of 35% DLinDMA with 5% CQ-lipid (˜14.7 μM chloroquine). Total lipid uptake was estimated by cellular SPDiO fluorescence. When cells were treated for 16 hours, the uptake of SPDiO was dependent on the concentration of chloroquine as well as concentration of LNs (FIG. 4A). When Raw264.7 cells were treated only with DLinDMA LNs, the intensity of SPDiO increased in respect to concentration. […] The Cy5-siRNA distribution at 16 hours was relatively more “punctate” than that at 24 hours (FIGS. 4B and C).

[5] = system: HeLa cells; assay: LNP uptake in HeLa cells (SPDiO fluorescence, Cellomics / confocal); format: cell-based, human; conditions: for LNP uptake with cardiac glycosides: 0.05, 0.15 and 1.5 μM, 24 h
Method: All cell lines were seeded at 5000 to 20,000 cells/well of 96-well ViewPlate (PerkinElmer, Shelton, Conn., USA) in 100 μl of medium and were allowed to grow overnight. Fresh medium containing 5 or 10 μg/ml of siRNA encapsulated in LNP was added the next day. Small molecules were either added manually or pinned from 1000-fold stocks in DMSO using a pinning robot equipped with 0.4 mm pins (BioRobotics, Cambridge, UK). Cells were incubated for 24 h. Cells were then washed once in PBSCM (1×PBS containing […] CaCl2), fixed in 3% paraformaldehyde containing Hoescht's stain for 15 min, washed once in PBSCM and stored in 100 μl of PBSCM.
Plates were imaged using a Cellomics Arrayscan VTI HCS Reader (Thermo Scientific, Pittsburgh, Pa., USA). Images were acquired using a 20× PlanFluor objective and a XF93 filter set. Object identification and image analysis were performed using the Cellomics Compartmental Analysis algorithm. Cellular SPDiO and siRNA-Cy3 fluorescence intensities were measured for a minimum of 400 cells and the average pixel intensity was examined. For confocal microscopy, cells grown on glass coverslips were washed once in 1×PBS, fixed in 3% paraformaldehyde containing Hoechst's stain for 15 min, washed again and mounted on slides. Images were captured on an Olympus FV1000 (Olympus, Center Valley, Pa., USA) laser scanning microscope and cellular SPDiO fluorescence intensity was analyzed using ImageJ (NIH, http://rsb.info.nih.gov/ij/).

[6] = system: Na+/K+-ATPase; conditions: Paula et al., 2005; cited from earlier work
[7] = 30 μM free chloroquine, or 35% DLinDMA LNs with 5% CQ-lipid, 16 hours

SMILES: CC(=O)c1ccc(S(=O)(=O)NC(=O)NC2CCCCC2)cc1 [Acetohexamide]
- Normalized Punctate Distribution [1]: 1.48
- Normalized siRNA Uptake [1]: 1.32

SMILES: Nc1nc(O)c2[nH]nnc2n1 [Azaguanine-8]
- Normalized Punctate Distribution [1]: 0.07
- Normalized siRNA Uptake [1]: 0.54

SMILES: CCCCC/C=C\C/C=C\CCCCCCCCOCC(CNCCCCNc1ccnc2cc(Cl)ccc12)OCCCCCCCC/C=C\C/C=C\CCCCC (stereo not shown) [CQ-lipid]
- GAPDH protein expression ([2]; 20 μg/mL GAPDH siRNA in LN containing 5% CQ-lipid, 48 hours): decreased GAPDH protein expression
- gene knockdown occurred earlier than with LN without CQ-lipid ([2]; 20 μg/ml siRNA in LN containing the CQ-lipid): 24 h
- GAPDH knockdown ([2]; 24 hours): no knockdown
- knockdown of GAPDH ([2]; 72 hours): more pronounced
- knockdown of GAPDH ([3]; LN containing 5% CQ-lipid, 72 hours): More pronounced knockdown effect
- knockdown of GAPDH ([3]; all concentrations of LN containing 5% CQ-lipid, 48 hours): Enhanced knockdown of GAPDH
- Cy5-siRNA punctate levels [4, 7]: significant reduction
- intracellular DiO accumulation (LN uptake) ([4]; 5% CQ-lipid:35% DLinDMA LN, highest dose, versus 0% CQ-lipid:40% DLinDMA): substantially reduced intracellular DiO accumulation
- siRNACy3 punctate signal ([4]; 40% DLinDMA LNs with 5% CQ-lipid, 24 hours): lowered punctate signal
- uptake of LN particles (SPDiO fluorescence) ([4]; 40% DLinDMA LNs with versus without 5% CQ-lipid, 24 hours): comparable intracellular SPDiO fluorescence

SMILES: CCN(CC)CCCC(C)Nc1ccnc2cc(Cl)ccc12 (stereo not shown) [Chloroquine]
- Normalized Punctate Distribution [1]: 0.10
- Normalized siRNA Uptake [1]: 0.34
- punctate / cytosolic distribution of siRNACy3 in titration study [1]: significant loss of punctate distribution of siRNACy3 at 10 μM
- siRNA showing punctate distribution ([4]; 10 μM chloroquine, 24 hours (without chloroquine maximum 25-30%)): ~10%
- uptake of LNs (SPDiO fluorescence) ([4]; 10 μM free chloroquine, 40% DLinDMA LNs, 16 hours): no significant difference
- Cy5-siRNA punctate levels ([4]; 10 μM free chloroquine, 16 hours): largely indifferent
- Cy5-siRNA punctate levels [4, 7]: significant reduction

SMILES: C[N+]1(C)CCC(=C(c2ccccc2)c2ccccc2)CC1 [Diphemanil methylsulfate]
- Normalized Punctate Distribution [1]: 0.34
- Normalized siRNA Uptake [1]: 0.70
- punctate / cytosolic distribution of siRNACy3 in titration study [1]: only showed enhanced cytosolic distribution of siRNACy3 at 30 μM

SMILES: Cn1c(=O)c2c(ncn2CC(O)CO)n(C)c1=O (stereo not shown) [Diprophylline]
- Normalized Punctate Distribution [1]: 1.55
- Normalized siRNA Uptake [1]: 1.38
- increase in siRNACy3 accumulation [1]: Approximately 2 fold

SMILES: C[C@H]1O[C@@H](O[C@H]2CC[C@]3(C=O)[C@H]4CC[C@]5(C)[C@@H](C6=CC(=O)OC6)CC[C@]5(O)[C@@H]4CC[C@]3(O)C2)C[C@H](O)[C@@H]1O [Helveticoside]
- LNP uptake with cardiac glycosides [5]: enhanced LNP uptake at a higher concentration
- presence of LNs in cells by confocal microscopy ([5]; treated for 24 hrs): substantial amount of LNs
- relative binding affinity among the 9 cardiac glycosides [6]: weakest binder

SMILES: CC(=O)OCC(=O)[C@@]1(O)CC[C@H]2[C@@H]3CCC4=CC(=O)C=C[C@]4(C)[C@@]3(F)[C@@H](O)C[C@@]21C [Isoflupredone acetate]
- Normalized Punctate Distribution [1]: 0.07
- Normalized siRNA Uptake [1]: 0.50

SMILES: Cc1cc(NC(=O)C2=C(O)c3ccccc3S(=O)(=O)N2C)no1 [Isoxicam]
- Normalized Punctate Distribution [1]: 1.53
- Normalized siRNA Uptake [1]: 1.42
- increase in siRNACy3 accumulation [1]: ~3 fold

SMILES: CC(COc1ccccc1)NC(C)C(O)c1ccc(O)cc1 (stereo not shown) [Isoxsuprine HCl, isoxsuprine hydrochloride]
- Normalized Punctate Distribution [1]: 0.33
- Normalized siRNA Uptake [1]: 0.51

SMILES: N[C@@H](Cc1ccc(O)c(O)c1)C(=O)O [Levodopa]
- Normalized Punctate Distribution [1]: 1.43
- Normalized siRNA Uptake [1]: 1.28

SMILES: c1ccc2c(CC3=NCCN3)cccc2c1 [Naphazoline HCl, naphazoline hydrochloride]
- Normalized Punctate Distribution [1]: 1.49
- Normalized siRNA Uptake [1]: 1.32

SMILES: C[C@@H]1O[C@@H](O[C@@H]2C=C3CCC4C(CC[C@]5(C)[C@@H](c6ccc(=O)oc6)CC[C@]45O)[C@@]3(C)CC2)[C@H](O)[C@H](O)[C@H]1O (stereo partly shown) [Proscillaridin A]
- LNP uptake with cardiac glycosides [5]: required the least amount to cause an increased LNP uptake
- relative binding affinity among the 9 cardiac glycosides [6]: strongest binder

SMILES: COc1cc(C(=O)NCc2ccc(OCCN(C)C)cc2)cc(OC)c1OC [Trimethobenzamide HCl, Trimethobenzamide hydrochloride]
- Normalized Punctate Distribution [1]: 0.31
- Normalized siRNA Uptake [1]: 0.70
- punctate / cytosolic distribution of siRNACy3 in titration study [1]: increased punctate distribution of siRNACy3 with increasing drug concentration
